Each structure is given as a SMILES string. “And” between values parts separate entries of the source, which are not always exact repeats. Identical values can stand only once. Like-named read-outs stand apart in the source and are kept apart here.

Data set [1] has as its target T1, PARP-1 (Homo sapiens, UniProt P09874).
T1 construct: purchased BPS Bioscience 80580
As to the kind of experiment: colorimetric 96-well PARP-1 assay kit (BPS Bioscience). It is filed as biochemical. As to conditions: for IC50: read-out: IC50 (mean ± SEM) PARP-1.

Data set [2] concerns MDA-MB-436. The experiment in a line: in vitro cytotoxicity, MTT assay, MDA-MB-436. As to conditions: for % viability MDA-MB-436: MTT lab report; for IC50: read-out: IC50 (mean ± SEM) MDA-MB-436; for SI: MDA-MB-436, matches IC50 WI-38 / IC50 MDA-MB-436.
For data set [3], the system named is WI-38. The experiment in a line: cytotoxicity against normal cells, MTT assay, WI-38. As to conditions: Homo sapiens, normal cell line, read-out: IC50 (mean ± SEM) WI-38. It is filed as cell-based. Here is the method:
It has been reported that the frequency and severity of the side effects on normal healthy cells at therapeutic levels are deemed to be critical factors that distinguish different anticancer drugs from each other. […]
to the wells designated as “Blank”. The amount of PARP-1 required for the assay was then calculated. The reaction was initiated by adding 20 µL of diluted PARP-1 en zy me to the wells designated “Positive Control” and “Test Inhibitor Control”. The strip wells were incubated at room temperature for 1 hou r. The strip wells were then wash ed three times with 200 µL of PBST buffer.
Then, 50 µL of 50 times diluted Streptavidin-HRP with blocking buffer was added to each well, and the strips were further incubated at room temperature for 30 min. After washing the wells three times with 200 µL of PBST buffer, HRP colorimetric substrate was added to each well, and the plate was incubated at room temperature until a blue color was developed in the positive control well. Then, the reaction was quenched with 100 µL per well of 2 M sulfuric acid. Carrier solvent (DMSO 5%, v/v) was used as a negative control. All compounds including Ol ap arib were t ested at 5 concentrations (100, 10, 1, 0.1, and 0.01 µM). The optical density (OD) of each well was measured spectrophotometrically at 450 nm with an ELISA microplate reader (ChroMate-4300, FL, USA). The IC50 values were calculated according to the equation for Boltzmann sigmoidal concentration-response curves using the nonlin ear regression fitting model (GraphPad Prism Version 8). All assays were performed in triplicate in 3 repeated experiments. The obtained data are presented as means standard error of the means from 3 independent repeats (n = 3).
4.3.In vitro anticancer screening
The cell lines were purchased from the American Type Culture collection as follows:
Breast Cancer cell lines (MDA-MB-436) and WI38. Cytotoxic activity screening was performed using MTT assay. Exponentially, cells were placed in 10^4 cells/ well for 24 h, and then add fresh med ium containing different concen trations of the tested sample. Serial two-fold dilutions of the tested sample were added using a multichannel pipette. Moreover, all cells were cultivated at 37 °C, with 5% CO2 and 95% humidity. Also, incubation of control cells occurred at 3 7 ° C . […] Rinse the wells using water until no stain. After that, add 30% g lacial acetic acid to all wells with shaking plates on a Microplate reader (TECAN, Inc.) to measure the absorbance, using a test wavelength of 490 nm. Besides, compare the treated samples with the control cell. The cytotoxicity was estimated by IC50 in (μg /mL), the concentration that inhibits 50% of the growth of the examined cell.
(Tetrazolium assays rely on reduction of a dye to a coloured formazan, in cell work by metabolically active cells.)

The mark [4] stands for this setting: mutant BRCA1 breast cancer cells, MTT.

T1 sequence (P09874 whole entry): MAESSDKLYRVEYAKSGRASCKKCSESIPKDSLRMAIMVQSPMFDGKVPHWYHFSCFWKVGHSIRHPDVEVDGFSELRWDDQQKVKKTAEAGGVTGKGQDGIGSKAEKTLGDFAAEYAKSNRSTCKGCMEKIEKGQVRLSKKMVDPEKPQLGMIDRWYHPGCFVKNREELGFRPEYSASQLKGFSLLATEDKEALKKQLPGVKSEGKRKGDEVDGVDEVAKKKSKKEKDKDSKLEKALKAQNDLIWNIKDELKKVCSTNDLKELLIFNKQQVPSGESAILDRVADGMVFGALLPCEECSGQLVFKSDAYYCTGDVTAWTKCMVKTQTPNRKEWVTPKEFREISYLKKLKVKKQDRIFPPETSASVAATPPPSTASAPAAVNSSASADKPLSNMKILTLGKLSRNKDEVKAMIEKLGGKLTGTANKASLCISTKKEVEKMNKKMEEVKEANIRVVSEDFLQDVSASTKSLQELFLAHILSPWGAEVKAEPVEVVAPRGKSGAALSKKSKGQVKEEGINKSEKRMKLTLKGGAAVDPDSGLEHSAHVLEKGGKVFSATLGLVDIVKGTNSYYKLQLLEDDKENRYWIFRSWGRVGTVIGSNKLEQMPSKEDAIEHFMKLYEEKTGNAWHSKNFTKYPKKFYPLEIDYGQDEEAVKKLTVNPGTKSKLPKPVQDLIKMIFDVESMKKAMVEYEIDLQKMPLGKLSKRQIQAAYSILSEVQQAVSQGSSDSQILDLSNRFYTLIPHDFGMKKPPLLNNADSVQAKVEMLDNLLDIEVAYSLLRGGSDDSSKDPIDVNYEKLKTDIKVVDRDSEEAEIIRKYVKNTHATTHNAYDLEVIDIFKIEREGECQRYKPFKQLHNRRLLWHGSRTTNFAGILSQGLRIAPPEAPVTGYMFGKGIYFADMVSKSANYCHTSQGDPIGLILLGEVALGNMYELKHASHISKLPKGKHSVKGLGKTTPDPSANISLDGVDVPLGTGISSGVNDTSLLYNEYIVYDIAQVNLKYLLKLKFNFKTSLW

`NNS(=O)(=O)c1ccc2[nH]c(=O)c(=O)[nH]c2c1` [Compound 3, 2,3-Dioxo-1,2,3,4-tetrahydroquinoxaline-6-sulfonohydrazide] had a melting point of 285 to 287 °C. Besides, the “fold less PARP-1 inhibitory activity than reference drug Olaparib” value in data set [1] (ratio of IC50 values) came out at 3 fold. Further, in data set [1], the IC50 is 0.0129 ± 0.00473 µM.
With `Cc1cc(O)n(S(=O)(=O)c2ccc3[nH]c(=O)c(=O)[nH]c3c2)n1` [Compound 4, 6-((5-Hydroxy-3-methyl-1H-pyrazol-1-yl)sulfonyl)-1,4-dihydroquinoxaline-2,3-dione], the “% viability MDA-MB-436” value in data set [2] (log conc. 0.193 (1.6uM)) is 69.76%; in data set [2] (log conc. 0.796 (6.3uM)), 60.12%; in data set [2] (log conc. 1.398 (25uM)), 51.83%; in data set [2] (log conc. 2 (100uM)), 42.01%; in data set [2] (log conc. -0.409 (0.4uM)), 81.83%. Further, the IC50 turned out to be 30.3 ± 1.78 µM in data set [2] (setting [4]) and 0.00873 ± 0.00044 µM in data set [1]. The “fold less PARP-1 inhibitory activity than reference drug Olaparib” value in data set [1] (ratio of IC50 values) is listed as about 2 fold.
Regarding `O=C1CC(=O)N(S(=O)(=O)c2ccc3[nH]c(=O)c(=O)[nH]c3c2)N1` [Compound 6, 6-((3,5-Dioxopyrazolidin-1-yl)sulfonyl)-1,4-dihydroquinoxaline-2,3-dione], the melting point lay in the range of 270 to 272 °C. Besides, the “fold less PARP-1 inhibitory activity than reference drug Olaparib” value in data set [1] (ratio of IC50 values) is given as about 3 fold. In addition, the IC50 in data set [1] turned out to be 0.0133 ± 0.00068 µM.
Take `O=C1CCC(=O)N1NS(=O)(=O)c1ccc2[nH]c(=O)c(=O)[nH]c2c1` [Compound 7a, N-(2,5-dioxopyrrolidin-1-yl)-2,3-dioxo-1,2,3,4-tetrahydroquinoxaline-6-sulfonamide]: the melting point was 292 to 294 °C. Moreover, the 50% inhibitory concentration (IC50) in data set [1] is 0.0571 ± 0.00291 µM.
The compound `O=C1C=CC(=O)N1NS(=O)(=O)c1ccc2[nH]c(=O)c(=O)[nH]c2c1` [Compound 7b, N-(2,5-dioxo-2,5-dihydro-1H-pyrrol-1-yl)-2,3-dioxo-1,2,3,4-tetrahydroquinoxaline-6-sulfonamide] had a melting point of 295 to 297 °C. The IC50 in data set [1] came out at 0.0358 ± 0.0018 µM.
Take `O=C1c2ccccc2C(=O)N1NS(=O)(=O)c1ccc2[nH]c(=O)c(=O)[nH]c2c1` [Compound 7c, N-(1,3-dioxoisoindolin-2-yl)-2,3-dioxo-1,2,3,4-tetrahydroquinoxaline-6-sulfonamide]: the melting point lay in the range of 207 to 209 °C. Besides, the concentration for half-maximal inhibition (IC50) in data set [1] amounted to 0.0434 ± 0.0001 µM.
Regarding `COc1ccc(NC(=S)NNS(=O)(=O)c2ccc3[nH]c(=O)c(=O)[nH]c3c2)cc1` [Compound 8a, 2-((2,3-Dioxo-1,2,3,4-tetrahydroquinoxalin-6-yl)sulfonyl)-N-(4-methoxyphenyl) Hydrazine-1-carbothioamide], the SI in data set [2] is given as 6.58. Further, the “% viability MDA-MB-436” value in data set [2] (log conc. 0.193 (1.6uM)) was found to be 61.23%; in data set [2] (log conc. 0.796 (6.3uM)), 53.52%; in data set [2] (log conc. 1.398 (25uM)), 43.91%; in data set [2] (log conc. 2 (100uM)) it was 35.79%; in data set [2] (log conc. -0.409 (0.4uM)) it was 73.41%. In addition, the concentration for half-maximal inhibition (IC50) was 10.7 ± 0.63 µM in data set [2] (setting [4]), 0.00231 ± 0.0003 µM in data set [1] and 70.46 ± 0.43 µM in data set [3]. For the same compound, the “fold higher PARP-1 inhibitory activity than Olaparib” value in data set [1] (ratio of IC50 values) was about 2 fold.
`O=C(NC(=S)NNS(=O)(=O)c1ccc2[nH]c(=O)c(=O)[nH]c2c1)c1ccccc1` [Compound 8b, N-(2-((2,3-dioxo-1,2,3,4-tetrahydroquinoxalin-6-yl)sulfonyl)hydrazine-1-carbonothioyl)benzamide] yielded a melting point of 265 to 267 °C. Besides, the “fold less PARP-1 inhibitory activity than reference drug Olaparib” value in data set [1] (ratio of IC50 values) is 2.5 fold. The half-maximal inhibitory concentration (IC50) in data set [1] is 0.0111 ± 0.00056 µM.
Compound `COc1ccc(-n2c(=O)cc(O)n(NS(=O)(=O)c3ccc4[nH]c(=O)c(=O)[nH]c4c3)c2=S)cc1` [Compound 9a, N-(6-hydroxy-3-(4-methoxyphenyl)-4-oxo-2-thioxo-3,4-dihydropyrimidin-1(2H)-yl)-2,3-dioxo-1,2,3,4-tetrahydroquinoxaline-6-sulfonamide] came in with a melting point of 205 to 207 °C. In data set [1], the IC50 was determined as 0.0574 ± 0.0029 µM.
For `O=C(c1ccccc1)n1c(=O)cc(O)n(NS(=O)(=O)c2ccc3[nH]c(=O)c(=O)[nH]c3c2)c1=S` [Compound 9b, N-(3-benzoyl-6-hydroxy-4-oxo-2-thioxo-3,4-dihydropyrimidin-1(2H)-yl)-2,3-dioxo-1,2,3,4-tetrahydroquinoxaline-6-sulfonamide], the melting point fell in the range of 270 to 272 °C. Moreover, the IC50 in data set [1] stood at 0.0357 ± 0.00182 µM.
On to `COc1ccc(-n2c(C)csc2=NNS(=O)(=O)c2ccc3[nH]c(=O)c(=O)[nH]c3c2)cc1` [Compound 10a, N′-(3-(4-methoxyphenyl)-4-methylthiazol-2(3H)-ylidene)-2,3-dioxo-1,2,3,4-tetrahydroquinoxaline-6-sulfonohydrazide], for which the melting point was 130 to 132 °C. Moreover, the IC50 in data set [1] was found to be 0.0216 ± 0.0011 µM.
Compound `Cc1csc(=NNS(=O)(=O)c2ccc3[nH]c(=O)c(=O)[nH]c3c2)n1C(=O)c1ccccc1` [Compound 10b, N’-(3-benzoyl-4-methylthiazol-2(3H)-ylidene)-2,3-dioxo-1,2,3,4-tetrahydroquinoxaline-6-sulfonohydrazide] gave an SI in data set [2] of 7.86. For the same compound, the “% viability MDA-MB-436” value in data set [2] (log conc. 0.193 (1.6uM)) is on record as 65.24%; in data set [2] (log conc. 0.796 (6.3uM)), 52.38%; in data set [2] (log conc. 1.398 (25uM)), 43.29%; in data set [2] (log conc. 2 (100uM)), 32.38%; in data set [2] (log conc. -0.409 (0.4uM)), 72.68%. The 50% inhibitory concentration (IC50) in data set [2] (setting [4]) is 9.62 ± 0.56 µM; in data set [1], 0.00635 ± 0.00032 µM; in data set [3], 75.66 ± 0.51 µM.
Turning to `COc1ccc(-n2c(C)c(C(C)=O)sc2=NNS(=O)(=O)c2ccc3[nH]c(=O)c(=O)[nH]c3c2)cc1` [Compound 11a, N’-(5-acetyl-3-(4-methoxyphenyl)-4-methylthiazol-2(3H)-ylidene)-2,3-dioxo-1,2,3,4-tetrahydroquinoxaline-6-sulfonohydrazide], the melting point lay in the range of 185 to 187 °C. For the same compound, the IC50 in data set [1] stood at 0.0194 ± 0.00099 µM.
In data set [2], `CC(=O)c1sc(=NNS(=O)(=O)c2ccc3[nH]c(=O)c(=O)[nH]c3c2)n(C(=O)c2ccccc2)c1C` [Compound 11b, N’-(5-acetyl-3-benzoyl-4-methylthiazol-2(3H)-ylidene)-2,3-dioxo-1,2,3,4-tetrahydro Quinoxaline-6-sulfonohydrazide] gave an SI of 6.96. Moreover, the “% viability MDA-MB-436” value in data set [2] (log conc. 0.193 (1.6uM)) is listed as 62.03%; in data set [2] (log conc. 0.796 (6.3uM)), 55.11%; in data set [2] (log conc. 1.398 (25uM)) it was 44.77%; in data set [2] (log conc. 2 (100uM)), 35.26%; in data set [2] (log conc. -0.409 (0.4uM)), 73.47%. Also, the 50% inhibitory concentration (IC50) in data set [2] (setting [4]) worked out at 11.5 ± 0.67 µM; in data set [1], 0.00825 ± 0.00042 µM; in data set [3], 80.1 ± 0.82 µM.
Consider `COc1ccc(N2C(=O)CSC2=NNS(=O)(=O)c2ccc3[nH]c(=O)c(=O)[nH]c3c2)cc1` [Compound 12a, N’-(3-(4-methoxyphenyl)-4-oxothiazolidin-2-ylidene)-2,3-dioxo-1,2,3,4-tetrahydro quinoxaline-6-sulfonohydrazide], for which the melting point lay in the range of 292 to 294 °C. Besides, the IC50 in data set [1] stood at 0.0361 ± 0.00184 µM.
`O=C1CSC(=NNS(=O)(=O)c2ccc3[nH]c(=O)c(=O)[nH]c3c2)N1C(=O)c1ccccc1` [Compound 12b, N’-(3-benzoyl-4-oxothiazolidin-2-ylidene)-2,3-dioxo-1,2,3,4-tetrahydroquinoxaline-6-sulfonohydrazide]: the melting point lay within 290 to 292 °C. The half-maximal inhibitory concentration (IC50) in data set [1] is 0.0405 ± 0.00206 µM.
Regarding `O=C(c1cc(Cc2n[nH]c(=O)c3ccccc23)ccc1F)N1CCN(C(=O)C2CC2)CC1` [Olaparib, reference compound], the IC50 in data set [2] was 8.9 µM and 8.63 µM.

What is called IC50 is the concentration needed to halve the response being measured. Usually melting point stands for the temperature, or range, at which the solid turns liquid.
